Columns and labels:
[1] = test system: HCT-116; experiment: In vitro cytotoxicity against 116 human colon tumor cell line (HCT116); type: functional, cell-based
[2] = test system: Mus musculus; experiment: Compound was tested in vivo in mice against Madison 109 lung carcinoma cell line (M109) in a pretreated group over a control group at 64 mg/kg/inj; type: functional
[3] = test system: Mus musculus; experiment: Compound was tested in vivo in mice against Madison 109 lung carcinoma cell line (M109) in a pretreated group over a control group at 32 mg/kg/inj; type: functional
[4] = test system: Mus musculus; experiment: Compound was tested in vivo in mice against Madison 109 lung carcinoma cell line (M109) in a pretreated group over a control group at 128 mg/kg/inj; type: functional
[5] = test system: Mus musculus; experiment: Compound was tested in vivo in mice against Madison 109 lung carcinoma cell line (M109) in a pretreated group over a control group at 16 mg/kg/inj; type: functional

Compound | IC50 [1] [nM] | T/C [2] [%] | T/C [3] [%] | T/C [4] [%] | T/C [5] [%]
CC(C)(C)[Si](C)(C)O[C@@]12C#C/C=C\C#C[C@@H](OC(=O)COc3ccccc3)C(=CCC1)C2=O | 190 | 143 |  |  | 
CC(C)(C)[Si](C)(C)O[C@@]12C#C/C=C\C#C[C@@H](F)C(=CCC1)C2=O | 24 |  | 112 |  | 
CC(C)(C)[Si](C)(C)O[C@@]12C#C/C=C\C#C[C@H](O)C(=CCC1)C2=O | > 2000 |  |  | 115 | 
CC(C)(C)[Si](C)(C)O[C@@]12C#C/C=C\C#C[C@@H](O)C(=CCC1)C2=O | 100 |  |  |  | 144
CC(C)(C)[Si](C)(C)O[C@@]12C#C/C=C\C#CCC(=CCC1)C2=O | > 2000 |  |  |  | 

— ChEMBL document CHEMBL1152093, “The effect of propargylic substitution on the activation and aromatization of enediynes” (Bioorg Med Chem Lett, 1994)
